The values that follow come from US12539292B2, “BRM targeting compounds and associated methods of use” (Arvinas Operations, Inc., priority 2018, dated 2026).

Like-named read-outs stand apart in the source and are kept apart here.

This test concerns the target T1, BRM (Homo sapiens, UniProt P51531).
T1 construct: In-Cell Western Screen of BRM Degradation in SW1573 Cells; endogenous in cells; host or cells: SW1573
As to the kind of experiment: In-cell Western screen of BRM degradation in SW1573 cells (Dmax and DC50). The format is cell-based. The note with it: BRM degradation, SW1573 cells. The method, boiled down:
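SW1573, overnight cpd exposure (18-20 h), 0.1% DMSO final. PFA fix, 0.5% Triton permeabilization, block; IR secondaries at 800/680 nm. Odyssey read → Dmax, DC50.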

[1] abbreviates: tested at the top concentration of between 0.3 and 10 μM, read-out: Dmax (%) (% degraded).
[2] abbreviates: when tested at the top concentration of between 0.3 and 10 μM, read-out: Dmax (%) (% degraded).

T1 sequence (P51531 whole entry): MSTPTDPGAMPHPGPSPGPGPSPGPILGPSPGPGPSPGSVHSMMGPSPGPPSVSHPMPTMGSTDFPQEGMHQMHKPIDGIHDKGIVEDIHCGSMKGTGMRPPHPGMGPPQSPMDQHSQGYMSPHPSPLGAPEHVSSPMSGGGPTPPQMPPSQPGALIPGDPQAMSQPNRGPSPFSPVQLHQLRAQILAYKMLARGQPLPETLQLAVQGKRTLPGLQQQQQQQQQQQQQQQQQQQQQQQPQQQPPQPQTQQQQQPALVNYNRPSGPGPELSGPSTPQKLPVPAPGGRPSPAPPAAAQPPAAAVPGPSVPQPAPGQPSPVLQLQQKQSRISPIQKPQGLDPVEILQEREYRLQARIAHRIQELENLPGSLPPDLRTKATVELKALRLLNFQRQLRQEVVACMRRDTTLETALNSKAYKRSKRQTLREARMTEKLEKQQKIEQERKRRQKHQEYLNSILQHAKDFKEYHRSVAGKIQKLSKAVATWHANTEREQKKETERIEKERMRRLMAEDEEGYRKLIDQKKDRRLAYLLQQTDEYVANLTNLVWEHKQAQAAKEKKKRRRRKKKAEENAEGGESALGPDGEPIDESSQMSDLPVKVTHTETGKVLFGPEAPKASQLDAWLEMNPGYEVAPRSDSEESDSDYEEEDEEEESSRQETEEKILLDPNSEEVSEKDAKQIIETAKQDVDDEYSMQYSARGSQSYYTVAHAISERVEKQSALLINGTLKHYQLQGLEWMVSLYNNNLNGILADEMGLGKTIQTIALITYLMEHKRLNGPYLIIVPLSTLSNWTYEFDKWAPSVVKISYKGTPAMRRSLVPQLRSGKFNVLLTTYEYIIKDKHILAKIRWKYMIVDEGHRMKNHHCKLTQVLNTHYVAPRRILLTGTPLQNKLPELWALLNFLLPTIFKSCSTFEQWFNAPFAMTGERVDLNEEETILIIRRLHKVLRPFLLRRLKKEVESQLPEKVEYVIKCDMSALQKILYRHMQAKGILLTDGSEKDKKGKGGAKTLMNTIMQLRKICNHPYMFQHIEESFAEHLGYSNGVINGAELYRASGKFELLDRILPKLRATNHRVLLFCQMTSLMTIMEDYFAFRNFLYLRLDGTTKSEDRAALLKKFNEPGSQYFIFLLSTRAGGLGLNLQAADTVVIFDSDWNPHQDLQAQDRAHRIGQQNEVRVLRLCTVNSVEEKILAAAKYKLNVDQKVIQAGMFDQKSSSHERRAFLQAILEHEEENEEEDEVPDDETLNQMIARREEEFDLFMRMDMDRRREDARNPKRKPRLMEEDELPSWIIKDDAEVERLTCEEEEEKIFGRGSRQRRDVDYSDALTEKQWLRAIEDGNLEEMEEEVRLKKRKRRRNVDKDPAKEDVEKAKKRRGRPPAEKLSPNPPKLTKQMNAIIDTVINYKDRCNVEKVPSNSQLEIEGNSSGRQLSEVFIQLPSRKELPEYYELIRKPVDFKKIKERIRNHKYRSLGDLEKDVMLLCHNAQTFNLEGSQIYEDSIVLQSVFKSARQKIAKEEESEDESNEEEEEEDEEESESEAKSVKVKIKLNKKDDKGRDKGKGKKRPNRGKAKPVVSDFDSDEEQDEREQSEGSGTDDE

With `Cc1ncoc1-c1ccc([C@H](C)NC(=O)[C@@H]2C[C@@H](O)CN2C(=O)[C@@H](c2cc(N3CCC(CN4CCC(O[C@H]5C[C@H](Oc6cc(N7C8CCC7CN(c7cc(-c9ccccc9O)nnc7N)C8)ccn6)C5)CC4)CC3)no2)C(C)C)cc1` [compound 674, (2S,4R)-1-((2R)-2-(3-(4-((4-((1r,3r)-3-((4-(3-(3-amino-6-(2-hydroxyphenyl)pyridazin-4-yl)-3,8-diazabicyclo[3.2.1]octan-8-yl)pyridin-2-yl)oxy)cyclobutoxy)piperidin-1-yl)methyl)piperidin-1-yl)isoxazol-5-yl)-3-methylbutanoyl)-4-hydroxy-N-((S)-1-(4-(4-methyloxazol-5-yl)phenyl)ethyl)pyrrolidine-2-carboxamide], the DC50 (as a rule, the concentration at which degradation of the target reaches its halfway point) (read-out: DC50) was less than 2.5 nM. Also, the Dmax (as a rule, the greatest extent of degradation seen) (read-out: Dmax (% degraded)) was greater than 75%.
Take `Cc1ncsc1-c1ccc([C@H](CO)NC(=O)[C@@H]2C[C@@H](O)CN2C(=O)[C@H](c2cc(OCCN3CCC(O[C@H]4C[C@H](Oc5cc(N6C7CCC6CN(c6cc(-c8ccccc8O)nnc6N)C7)ccn5)C4)CC3)no2)C(C)C)cc1` [compound 200, (2S,4R)-1-((2S)-2-(3-(2-(4-((1r,3S)-3-((4-(3-(3-amino-6-(2-hydroxyphenyl)pyridazin-4-yl)-3,8-diazabicyclo[3.2.1]octan-8-yl)pyridin-2-yl)oxy)cyclobutoxy)piperidin-1-yl)ethoxy)isoxazol-5-yl)-3-methylbutanoyl)-4-hydroxy-N-((R)-2-hydroxy-1-(4-(4-methylthiazol-5-yl)phenyl)ethyl)pyrrolidine-2-carboxamide]: the DC50 (read-out: DC50) was in the range of 2.5 to 10 nM. Moreover, under setting [1], the Dmax is greater than 75%.
For `Cc1ncsc1-c1c(F)cc([C@H](C)NC(=O)[C@@H]2C[C@@H](O)CN2C(=O)[C@@H](c2cc(N3CCC(CN4CCC(O[C@H]5C[C@H](Oc6cc(N7C8CCC7CN(c7cc(-c9ccccc9O)nnc7N)C8)ccn6)C5)CC4)CC3)no2)C(C)C)cc1F` [compound 666, (2S,4R)-1-((2R)-2-(3-(4-((4-((1r,3r)-3-((4-(3-(3-amino-6-(2-hydroxyphenyl)pyridazin-4-yl)-3,8-diazabicyclo[3.2.1]octan-8-yl)pyridin-2-yl)oxy)cyclobutoxy)piperidin-1-yl)methyl)piperidin-1-yl)isoxazol-5-y1)-3-methylbutanoyl)-N-((S)-1-(3,5-difluoro-4-(4-methylthiazol-5-yl)phenyl)ethyl)-4-hydroxypyrrolidine-2-carboxamide], the DC50 (read-out: DC50) was less than 2.5 nM. Also, where the note is “read-out: Dmax (% degraded)”, the Dmax was greater than 75%.
As to `Cc1ncsc1-c1ccc([C@H](C)NC(=O)[C@@H]2C[C@@H](O)CN2C(=O)[C@H](c2cc(OCCN3CCN(CC#CCN4CCOC5(CCN(c6cc(-c7ccccc7O)nnc6N)CC5)C4)CC3)no2)C(C)C)cc1` [compound 187, (2S,4R)-1-((S)-2-(3-(2-(4-(4-(9-(3-amino-6-(2-hydroxyphenyl)pyridazin-4-yl)-1-oxa-4,9-diazaspiro[5.5]undecan-4-yl)but-2-yn-1-yl)piperazin-1-yl)ethoxy)isoxazol-5-yl)-3-methylbutanoyl)-4-hydroxy-N-((S)-1-(4-(4-methylthiazol-5-yl)phenyl)ethyl)pyrrolidine-2-carboxamide], the DC50 (read-out: DC50) is greater than 30 nM.
As for `Cc1ncsc1-c1cc(F)c([C@H](C)NC(=O)[C@@H]2C[C@@H](O)CN2C(=O)[C@@H](c2cc(OCCC3CCN(C[C@H]4C[C@H](Oc5cc(N6C7CCC6CN(c6cc(-c8ccccc8O)nnc6N)C7)ccn5)C4)CC3)no2)C(C)C)cc1F` [compound 552, (2S,4R)-1-((2R)-2-(3-(2-(1-(((1r,3R)-3-((4-(3-(3-amino-6-(2-hydroxyphenyl)pyridazin-4-yl)-3,8-diazabicyclo[3.2.1]octan-8-yl)pyridin-2-yl)oxy)cyclobutyl)methyl)piperidin-4-yl)ethoxy)isoxazol-5-yl)-3-methylbutanoyl)-N-((S)-1-(2,5-difluoro-4-(4-methylthiazol-5-yl)phenyl)ethyl)-4-hydroxypyrrolidine-2-carboxamide], for the setting “Table 2D, read-out: **Dmax (%) (% degraded)”, the Dmax was greater than 75%. Further, the DC50 (Table 2D, read-out: *DC50) is less than 2.5 nM.
Take `Cc1ncsc1-c1ccc([C@H](C)NC(=O)[C@@H]2C[C@@H](O)CN2C(=O)[C@@H](NC(=O)COCCN2CCC(O[C@H]3C[C@H](Oc4cc(N5C6CCC5CN(c5cc(-c7ccccc7O)nnc5N)C6)ccn4)C3)CC2)C(C)(C)C)cc1` [compound 183, (2S,4R)-1-((2S)-2-(2-(2-(4-((1r,3S)-3-((4-(3-(3-amino-6-(2-hydroxyphenyl)pyridazin-4-yl)-3,8-diazabicyclo[3.2.1]octan-8-yl)pyridin-2-yl)oxy)cyclobutoxy)piperidin-1-yl)ethoxy)acetamido)-3,3-dimethylbutanoyl)-4-hydroxy-N-((S)-1-(4-(4-methylthiazol-5-yl)phenyl)ethyl)pyrrolidine-2-carboxamide]: the DC50 (read-out: DC50) was less than 2.5 nM. The Dmax under setting [1] is greater than 75%.
With `Cc1ncsc1-c1ccc([C@H](C)NC(=O)[C@@H]2C[C@@H](O)CN2C(=O)[C@@H](c2cc(N3CCC4(CC3)CC(CN3CCC(O[C@H]5C[C@H](Oc6cc(N7C8CCC7CN(c7cc(-c9ccccc9O)nnc7N)C8)ccn6)C5)CC3)C4)no2)C(C)C)cc1` [compound 650, (2S,4R)-1-((2R)-2-(3-(2-((4-((1r,3r)-3-((4-(3-(3-amino-6-(2-hydroxyphenyl)pyridazin-4-yl)-3,8-diazabicyclo[3.2.1]octan-8-yl)pyridin-2-yl)oxy)cyclobutoxy)piperidin-1-yl)methyl)-7-azaspiro[3.5]nonan-7-yl)isoxazol-5-yl)-3-methylbutanoyl)-4-hydroxy-N-((S)-1-(4-(4-methylthiazol-5-yl)phenyl)ethyl)pyrrolidine-2-carboxamide], the DC50 (read-out: DC50) was greater than 30 nM.
Consider `Cc1cc([C@@H](C(=O)N2C[C@H](O)C[C@H]2C(=O)N[C@@H](C)c2ccc(-c3scnc3C)cc2)[C@@H](C)COCCOc2cc(N3C4CCC3CN(c3cc(-c5ccccc5O)nnc3N)C4)ccn2)on1` [compound 301, (2S,4R)-1-((2S,3R)-4-(2-((4-(3-(3-amino-6-(2-hydroxyphenyl)pyridazin-4-yl)-3,8-diazabicyclo[3.2.1]octan-8-yl)pyridin-2-yl)oxy)ethoxy)-3-methyl-2-(3-methylisoxazol-5-yl)butanoyl)-4-hydroxy-N-((S)-1-(4-(4-methylthiazol-5-yl)phenyl)ethyl)pyrrolidine-2-carboxamide], for which the DC50 (read-out: DC50) was in the range of 2.5 to 10 nM. Also, under setting [1], the Dmax was greater than 75%.
With `Cc1ncsc1-c1ccc([C@@H](CN)NC(=O)[C@@H]2C[C@@H](O)CN2C(=O)[C@@H](c2cc(OCCN3CCN(CCOc4cc(N5C6CCC5CN(c5cc(-c7ccccc7O)nnc5N)C6)ccn4)CC3)no2)C(C)C)cc1` [compound 256, (2S,4R)-N-((S)-2-amino-1-(4-(4-methylthiazol-5-yl)phenyl)ethyl)-1-((2R)-2-(3-(2-(4-(2-((4-(3-(3-amino-6-(2-hydroxyphenyl)pyridazin-4-yl)-3,8-diazabicyclo[3.2.1]octan-8-yl)pyridin-2-yl)oxy)ethyl)piperazin-1-yl)ethoxy)isoxazol-5-yl)-3-methylbutanoyl)-4-hydroxypyrrolidine-2-carboxamide], the DC50 (read-out: DC50) is greater than 30 nM.
With `Cc1ncsc1-c1ccc([C@H](C)NC(=O)[C@@H]2C[C@@H](O)CN2C(=O)[C@@H](c2cc(OCCN3CCN(C[C@H]4C[C@H](Oc5cc(N6C7CCC6CN(c6cc(-c8ccccc8O)nnc6N)C7)ccn5)C4)C[C@@H]3C)no2)C(C)C)cn1` [compound 296, (2S,4R)-1-((2R)-2-(3-(2-((2S)-4-(((1r,3S)-3-((4-(3-(3-amino-6-(2-hydroxyphenyl)pyridazin-4-yl)-3,8-diazabicyclo[3.2.1]octan-8-yl)pyridin-2-yl)oxy)cyclobutyl)methyl)-2-methylpiperazin-1-yl)ethoxy)isoxazol-5-yl)-3-methylbutanoyl)-4-hydroxy-N-((S)-1-(6-(4-methylthiazol-5-yl)pyridin-3-yl)ethyl)pyrrolidine-2-carboxamide], the DC50 (read-out: DC50) was less than 2.5 nM. Besides, the Dmax under setting [1] is greater than 75%.
Turning to `Cc1ncsc1-c1ccc(CNC(=O)[C@@H]2C[C@@H](O)CN2C(=O)[C@H](c2cc(OCCOCCOCCOCCOCCn3cc(-c4cc(-c5ccccc5O)nnc4N)cn3)no2)C(C)C)cc1` [compound 18, (2S,4R)-1-[(2S)-2-[3-[(14-[4-[3-amino-6-(2-hydroxyphenyl)pyridazin-4-yl]-1H-pyrazol-1-yl]-3,6,9,12-tetraoxatetradecan-1-yl)oxy]-1,2-oxazol-5-yl]-3-methylbutanoyl]-4-hydroxy-N-[[4-(4-methyl-1,3-thiazol-5-yl)phenyl]methyl]pyrrolidine-2-carboxamide], for the setting “read-out: DC50”, the DC50 was greater than 30 nM. Moreover, under setting [2], the Dmax lay in the range of 50 to 75%.
For `Cc1ncsc1-c1ccc(CNC(=O)[C@@H]2C[C@@H](O)CN2C(=O)[C@H](c2cc(OCCN3CCN(CCCc4cc(N5C6CCC5CN(c5cc(-c7ccccc7O)nnc5N)C6)ccn4)CC3)no2)C(C)C)cc1` [compound 43, (2S,4R)-1-[(2S)-2-[3-(2-[4-[3-(4-[3-[3-amino-6-(2-hydroxyphenyl)pyridazin-4-yl]-3,8-diazabicyclo[3.2.1]octan-8-yl]pyridin-2-yl)propyl]piperazin-1-yl]ethoxy)-1,2-oxazol-5-yl]-3-methylbutanoyl]-4-hydroxy-N-[[4-(4-methyl-1,3-thiazol-5-yl)phenyl]methyl]pyrrolidine-2-carboxamide], the Dmax under setting [2] is less than 50%.
